This passage reports IC50 results from patent US20230117324A1, “OXAZINE MONOACYLGLYCEROL LIPASE (MAGL) INHIBITORS” (Hoffmann-La Roche Inc., priority 2018, published 2023).

The test has as its target T1, MAGL (Homo sapiens, UniProt Q99685).
T1 sequence (Q99685 1-303): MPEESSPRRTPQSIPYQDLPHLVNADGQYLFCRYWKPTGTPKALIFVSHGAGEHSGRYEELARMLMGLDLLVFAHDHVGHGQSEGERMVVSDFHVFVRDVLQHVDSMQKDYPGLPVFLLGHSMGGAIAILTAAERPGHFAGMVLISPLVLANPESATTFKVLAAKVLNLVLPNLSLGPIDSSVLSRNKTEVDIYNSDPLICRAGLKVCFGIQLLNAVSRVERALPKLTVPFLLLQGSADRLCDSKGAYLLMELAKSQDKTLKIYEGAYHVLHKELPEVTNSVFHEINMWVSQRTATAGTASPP
Briefly: MAGL inhibition, 2-AG assay (hydrolysis of 2-arachidonoylglycerol, arachidonic acid by mass spectrometry). In kind it is biochemical. To be noted: 2-AG assay (footnote [b]). The essentials:
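Hydrolysis of 8 μM 2-arachidonoylglycerol by […] was run for 30 min at RT after a 15 min compound preincubation, in Tris/EDTA/Tween buffer. Test compounds spanned […]. The product was measured by online SPE-MS/MS (transitions 303.1→259.1 and 311.1→267.0), and activity was derived from the arachidonic acid/d8-arachidonic acid signal ratio.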
`Cn1ncc2c(C3CN(C(=O)N4CC[C@@H]5OCC(=O)N[C@@H]5C4)C3)cccc21` [Example 215, (4aR,8aS)-6-(3-(1-Methyl-1H-indazol-4-yl)azetidine-1-carbonyl)hexahydro-2H-pyrido[4,3-b][1,4]oxazin-3(4H)-one] yielded an IC50 of 550 nM.

`O=C1CO[C@H]2CCN(C(=O)N3CC(c4ccc(N5CCC(F)C5)cc4)C3)C[C@H]2N1` (stereo partly drawn) [Example 216, (4aR,8aS)-6-(3-(4-(3-Fluoropyrrolidin-1-yl)phenyl)azetidine-1-carbonyl)hexahydro-2H-pyrido[4,3-b][1,4]oxazin-3(4H)-one]: the IC50 was found to be 23 nM.

`CC1CCN1c1ccc(C2CN(C(=O)N3CC[C@@H]4OCC(=O)N[C@@H]4C3)C2)cc1` (stereo partly drawn) [Example 217, (4aR,8aS)-6-(3-(4-(2-Methylazetidin-1-yl)phenyl)azetidine-1-carbonyl)hexahydro-2H-pyrido[4,3-b][1,4]oxazin-3(4H)-one] had an IC50 of 6 nM.

`O=C1CO[C@H]2CCN(C(=O)N3CCC(C(c4ccccc4)c4cccnn4)CC3)C[C@H]2N1` (stereo partly drawn) [Example 218, (4aR,8aS)-6-[4-[Phenyl(pyridazin-3-yl)methyl]piperidine-1-carbonyl]-4,4a,5,7,8,8a-hexahydropyrido[4,3-b][1,4]oxazin-3-one] showed a 50% inhibitory concentration (IC50) of 54 nM.

Turning to `O=C1CO[C@H]2CCN(C(=O)N3CCC(c4ccc(OC(F)(F)F)cc4)C3)C[C@H]2N1` (stereo partly drawn) [Example 219, (4aR,8aS)-6-[3-[4-(Trifluoromethoxy)phenyl]pyrrolidine-1-carbonyl]-4,4a,5,7,8,8a-hexahydropyrido[4,3-b][1,4]oxazin-3-one], 276 nM corresponded to half-maximal inhibition (IC50).

As for `Cn1ncc2ccc(C3CN(C(=O)N4CC[C@@H]5OCC(=O)N[C@@H]5C4)C3)cc21` [Example 220, (4aR,8aS)-6-(3-(1-Methyl-1H-indazol-6-yl)azetidine-1-carbonyl)hexahydro-2H-pyrido[4,3-b][1,4]oxazin-3(4H)-one], the IC50 came out at 413 nM.

`O=C1CO[C@H]2CCN(C(=O)N3CC(c4ccc(O)c(Cl)c4)C3)C[C@H]2N1` [Example 223, (4aR,8aS)-6-(3-(3-Chloro-4-hydroxyphenyl)azetidine-1-carbonyl)hexahydro-2H-pyrido[4,3-b][1,4]oxazin-3(4H)-one]: the 50% inhibitory concentration (IC50) is 188 nM.

The compound `CC1CN(c2ccc(C3CN(C(=O)N4CC[C@@H]5OCC(=O)N[C@@H]5C4)C3)cc2Cl)C1` [Example 224, (4aR,8aS)-6-(3-(3-Chloro-4-(3-methylazetidin-1-yl)phenyl)azetidine-1-carbonyl)hexahydro-2H-pyrido[4,3-b][1,4]oxazin-3(4H)-one] showed an IC50 of 6 nM.

As to `O=C1CO[C@H]2CCN(C(=O)N3CC(c4ccc(C5COC5)cc4)C3)C[C@H]2N1` [Example 225, (4aR,8aS)-6-[3-[4-(Oxetan-3-yl)phenyl]azetidine-1-carbonyl]-4,4a,5,7,8,8a-hexahydropyrido[4,3-b][1,4]oxazin-3-one], half-maximal inhibition (IC50) was put at 100 nM.

The compound `O=C1CO[C@H]2CCN(C(=O)N3CC(c4ccc(N5CC(F)(F)C5)c(Cl)c4)C3)C[C@H]2N1` [Example 226, (4aR,8aS)-6-(3-(3-Chloro-4-(3,3-difluoroazetidin-1-yl)phenyl)azetidine-1-carbonyl)hexahydro-2H-pyrido[4,3-b][1,4]oxazin-3(4H)-one] yielded an IC50 of 19 nM.

In the case of `CC1CN(c2cc(C3CN(C(=O)N4CC[C@@H]5OCC(=O)N[C@@H]5C4)C3)ccc2OC(F)(F)F)C1` [Example 227, (4aR,8aS)-6-(3-(3-(3-Methylazetidin-1-yl)-4-(trifluoromethoxy)phenyl)azetidine-1-carbonyl)hexahydro-2H-pyrido[4,3-b][1,4]oxazin-3(4H)-one], the IC50 was 14 nM.

Take `O=C1CO[C@H]2CCN(C(=O)N3CC(c4ccc(N5CC6CC(C6)C5)cc4)C3)C[C@H]2N1` [Example 230, (4aR,8aS)-6-[3-[4-(3-Azabicyclo[3.1.1]heptan-3-yl)phenyl]azetidine-1-carbonyl]-4,4a,5,7,8,8a-hexahydropyrido[4,3-b][1,4]oxazin-3-one]: the midpoint of inhibition, the IC50, lay at 0.2 nM.

On to `CC1C(c2ccc(OC(F)(F)F)cc2)CN1C(=O)N1CC[C@@H]2OCC(=O)N[C@@H]2C1` (stereo partly drawn) [Example 231, (4aR,8aS)-6-(2-Methyl-3-(4-(Trifluoromethoxy)phenyl)azetidine-1-carbonyl)hexahydro-2H-pyrido[4,3-b][1,4]oxazin-3(4H)-one], for which the IC50 turned out to be 114 nM.

Compound `CC1(C)COc2cc(C3CN(C(=O)N4CC[C@@H]5OCC(=O)N[C@@H]5C4)C3)ccc21` [Example 232, (4aR,8aS)-6-(3-(3,3-Dimethyl-2,3-dihydrobenzofuran-6-yl)azetidine-1-carbonyl)hexahydro-2H-pyrido[4,3-b][1,4]oxazin-3(4H)-one] came in with an IC50 of 7 nM.

Consider `O=C1CO[C@H]2CCN(C(=O)N3CCC(c4cc(Cl)cc(OCC(F)(F)F)c4)C3)C[C@H]2N1` (stereo partly drawn) [Example 233, (4aR,8aS)-6-(3-(3-Chloro-5-(2,2,2-trifluoroethoxy)phenyl)pyrrolidine-1-carbonyl)hexahydro-2H-pyrido[4,3-b][1,4]oxazin-3(4H)-one], for which the IC50 is 61 nM.

Compound `COC(=O)C(C)(C)c1ccc(C2CN(C(=O)N3CC[C@@H]4OCC(=O)N[C@@H]4C3)C2)cc1` [Example 234, Methyl 2-methyl-2-(4-(1-((4aR,8aS)-3-Oxooctahydro-2H-pyrido[4,3-b][1,4]oxazine-6-carbonyl)azetidin-3-yl)phenyl)propanoate] returned an IC50 of 2 nM.

Consider `O=C1CO[C@H]2CCN(C(=O)N3CCC(c4cc(Cl)cc(Cl)c4)C3)C[C@H]2N1` (stereo partly drawn) [Example 235, (4aR,8aS)-6-(3-(3,5-Dichlorophenyl)pyrrolidine-1-carbonyl)hexahydro-2H-pyrido[4,3-b][1,4]oxazin-3(4H)-one], for which the IC50 came to 243 nM.

Turning to `COC1(C)CN(c2ccc(C3CN(C(=O)N4CC[C@@H]5OCC(=O)N[C@@H]5C4)C3)cc2)C1` [Example 236, (4aR,8aS)-6-(3-(4-(3-Methoxy-3-methylazetidin-1-yl)phenyl)azetidine-1-carbonyl)hexahydro-2H-pyrido[4,3-b][1,4]oxazin-3(4H)-one], half-maximal inhibition (IC50) was put at 15 nM.

In the case of `CC(C)(C)OC(=O)NCCOc1cccc(C(c2ccccc2)C2CCN(C(=O)N3CC[C@@H]4OCC(=O)N[C@@H]4C3)CC2)c1` (stereo partly drawn) [Example 237, tert-Butyl (2-(3-((1-((4aR,8aS)-3-oxooctahydro-2H-pyrido[4,3-b][1,4]oxazine-6-carbonyl)piperidin-4-yl)(phenyl)methyl)phenoxy)ethyl)carbamate], the IC50 stood at 1 nM.

The compound `COc1cc(C2CN(C(=O)N3CC[C@@H]4OCC(=O)N[C@@H]4C3)C2)ccc1C(C)(C)C` [Example 240, (4aR,8aS)-6-(3-(4-(tert-Butyl)-3-methoxyphenyl)azetidine-1-carbonyl)hexahydro-2H-pyrido[4,3-b][1,4]oxazin-3(4H)-one] displayed an IC50 of 2 nM.

For the compound `Cn1ncc2cc(C3CN(C(=O)N4CC[C@@H]5OCC(=O)N[C@@H]5C4)C3)ccc21` [Example 241, (4aR,8aS)-6-(3-(1-Methyl-1H-indazol-5-yl)azetidine-1-carbonyl)hexahydro-2H-pyrido[4,3-b][1,4]oxazin-3(4H)-one], the IC50 worked out at 245 nM.

Take `CCCc1ccc(C2CN(C(=O)N3CC[C@@H]4OCC(=O)N[C@@H]4C3)C2)cc1` [Example 242, (4aR,8aS)-6-(3-(4-Propylphenyl)azetidine-1-carbonyl)hexahydro-2H-pyrido[4,3-b][1,4]oxazin-3(4H)-one]: the IC50 worked out at 2 nM.

Regarding `O=C1CO[C@H]2CCN(C(=O)N3CC(c4ccc(OC(F)(F)F)c(C(F)(F)F)c4)C3)C[C@H]2N1` [Example 243, (4aR,8aS)-6-(3-(4-(Trifluoromethoxy)-3-(trifluoromethyl)phenyl)azetidine-1-carbonyl)hexahydro-2H-pyrido[4,3-b][1,4]oxazin-3(4H)-one], the IC50 turned out to be 10 nM.

`O=C1CO[C@H]2CCN(C(=O)N3CC(c4ccc(OCC5(C(F)(F)F)CC5)cc4)C3)C[C@H]2N1` [Example 244, (4aR,8aS)-6-[3-[4-[[1-(Trifluoromethyl)cyclopropyl]methoxy]phenyl]azetidine-1-carbonyl]-4,4a,5,7,8,8a-hexahydropyrido[4,3-b][1,4]oxazin-3-one]: the IC50 was found to be 0.3 nM.

`CC(C)(c1ccc(C2CN(C(=O)N3CC[C@@H]4OCC(=O)N[C@@H]4C3)C2)cc1)C(F)(F)F` [Example 245, (4aR,8aS)-6-[3-[4-(2,2,2-Trifluoro-1,1-dimethyl-ethyl)phenyl]azetidine-1-carbonyl]-4,4a,5,7,8,8a-hexahydropyrido[4,3-b][1,4]oxazin-3-one]: the IC50 amounted to 0.4 nM.

For the compound `O=C1CO[C@H]2CCN(C(=O)N3CC(c4ccc(CCCF)cc4)C3)C[C@H]2N1` [Example 247, (4aR,8aS)-6-[3-[4-(3-Fluoropropyl)phenyl]azetidine-1-carbonyl]-4,4a,5,7,8,8a-hexahydropyrido[4,3-b][1,4]oxazin-3-one], the IC50 was 6 nM.

Turning to `COc1cc(C2CN(C(=O)N3CC[C@@H]4OCC(=O)N[C@@H]4C3)C2)ccc1C` [Example 250, (4aR,8aS)-6-[3-(3-Methoxy-4-methyl-phenyl)azetidine-1-carbonyl]-4,4a,5,7,8,8a-hexahydropyrido[4,3-b][1,4]oxazin-3-one], the IC50 was 106 nM.
